Experimental data taken from ChEMBL document CHEMBL3046635, “Synthesis and Herbicidal Activity of New Pyrazole-4-carboxamide Derivatives” (J Pestic Sci, 2004).
The source made the active and inactive calls.

These compounds were tested on Oryza sativa (assay: Phytotoxicity against Oryza sativa cv. Koshihikari (rice) at 2000 g a.i/ha measured after 14 days). Conditions: in vivo, 336 h.
Format: organism-based

Structure (SMILES)	Activity
C#CCOc1nn(C)cc1C(=O)N(CC)CCC	Non-toxic
CCCN(CC)C(=O)c1cn(C)nc1OCc1cccc(F)c1	Non-toxic
CCCN(CC)C(=O)c1cn(C)nc1OCc1cc(C(F)(F)F)cc(C(F)(F)F)c1	Non-toxic

These compounds were tested on Echinochloa oryzicola (assay: Pre-emergence herbicidal activity against Echinochloa oryzicola at 2000 g a.i/ha measured after 14 days). Conditions: not given.
Format: functional, organism-based

Structure (SMILES)	Activity
C#CCOc1nn(C)cc1C(=O)N(CC)CCC	inactive
CCCN(CC)C(=O)c1cn(C)nc1OCc1cccc(F)c1	Active
CCCN(CC)C(=O)c1cn(C)nc1OCc1cc(C(F)(F)F)cc(C(F)(F)F)c1	inactive

What follows are compounds tested on Eleocharis acicularis (assay: Post-emergence herbicidal activity against Eleocharis acicularis assessed as bleaching of stem/leaf parts). Conditions: not given.
Format: functional, organism-based

Structure (SMILES)	Activity
C#CCOc1nn(C)cc1C(=O)N(CC)CCC	Active
CCCN(CC)C(=O)c1cn(C)nc1OCc1cccc(F)c1	Active
CCCN(CC)C(=O)c1cn(C)nc1OCc1cc(C(F)(F)F)cc(C(F)(F)F)c1	Active

What follows are compounds tested on Eleocharis acicularis (assay: Pre-emergence herbicidal activity against Eleocharis acicularis assessed as bleaching of stem/leaf parts). Conditions: not given.
Format: functional, organism-based

Structure (SMILES)	Activity
C#CCOc1nn(C)cc1C(=O)N(CC)CCC	Active
CCCN(CC)C(=O)c1cn(C)nc1OCc1cccc(F)c1	Active
CCCN(CC)C(=O)c1cn(C)nc1OCc1cc(C(F)(F)F)cc(C(F)(F)F)c1	Active

Each compound was assayed on Ammannia multiflora (assay: Pre-emergence herbicidal activity against Ammannia multiflora assessed as bleaching of stem/leaf parts). Conditions: not given.
Format: functional, organism-based

Structure (SMILES)	Activity
C#CCOc1nn(C)cc1C(=O)N(CC)CCC	Active
CCCN(CC)C(=O)c1cn(C)nc1OCc1cccc(F)c1	Active
CCCN(CC)C(=O)c1cn(C)nc1OCc1cc(C(F)(F)F)cc(C(F)(F)F)c1	Active

Each compound was assayed on Rotala indica (assay: Pre-emergence herbicidal activity against Rotala indica assessed as bleaching of stem/leaf parts). Conditions: not given.
Format: functional, organism-based

Structure (SMILES)	Activity
C#CCOc1nn(C)cc1C(=O)N(CC)CCC	Active
CCCN(CC)C(=O)c1cn(C)nc1OCc1cccc(F)c1	Active
CCCN(CC)C(=O)c1cn(C)nc1OCc1cc(C(F)(F)F)cc(C(F)(F)F)c1	Active

The compounds below were run on Elatine triandra (assay: Pre-emergence herbicidal activity against Elatine triandra assessed as bleaching of stem/leaf parts). Conditions: not given.
Format: functional, organism-based

Structure (SMILES)	Activity
C#CCOc1nn(C)cc1C(=O)N(CC)CCC	Active
CCCN(CC)C(=O)c1cn(C)nc1OCc1cccc(F)c1	Active
CCCN(CC)C(=O)c1cn(C)nc1OCc1cc(C(F)(F)F)cc(C(F)(F)F)c1	Active

The compounds below were run on Lindernia procumbens (assay: Pre-emergence herbicidal activity against Lindernia procumbens assessed as bleaching of stem/leaf parts). Conditions: not given.
Format: functional, organism-based

Structure (SMILES)	Activity
C#CCOc1nn(C)cc1C(=O)N(CC)CCC	Active
CCCN(CC)C(=O)c1cn(C)nc1OCc1cccc(F)c1	Active
CCCN(CC)C(=O)c1cn(C)nc1OCc1cc(C(F)(F)F)cc(C(F)(F)F)c1	Active

What follows are compounds tested on Schoenoplectiella juncoides (assay: Pre-emergence herbicidal activity against Schoenoplectiella juncoides assessed as bleaching of stem/leaf parts). Conditions: not given.
Format: functional, organism-based

Structure (SMILES)	Activity
C#CCOc1nn(C)cc1C(=O)N(CC)CCC	Active
CCCN(CC)C(=O)c1cn(C)nc1OCc1cccc(F)c1	Active
CCCN(CC)C(=O)c1cn(C)nc1OCc1cc(C(F)(F)F)cc(C(F)(F)F)c1	Active

Each compound was assayed on Pontederia vaginalis (assay: Pre-emergence herbicidal activity against Monochoria vaginalis assessed as bleaching of stem/leaf parts). Conditions: not given.
Format: functional, organism-based

Structure (SMILES)	Activity
C#CCOc1nn(C)cc1C(=O)N(CC)CCC	Active
CCCN(CC)C(=O)c1cn(C)nc1OCc1cccc(F)c1	Active
CCCN(CC)C(=O)c1cn(C)nc1OCc1cc(C(F)(F)F)cc(C(F)(F)F)c1	Active

What follows are compounds tested on Cyperus difformis (assay: Pre-emergence herbicidal activity against Cyperus difformis assessed as bleaching of stem/leaf parts). Conditions: not given.
Format: functional, organism-based

Structure (SMILES)	Activity
C#CCOc1nn(C)cc1C(=O)N(CC)CCC	Active
CCCN(CC)C(=O)c1cn(C)nc1OCc1cccc(F)c1	Active
CCCN(CC)C(=O)c1cn(C)nc1OCc1cc(C(F)(F)F)cc(C(F)(F)F)c1	Active

These compounds were tested on Echinochloa oryzicola (assay: Pre-emergence herbicidal activity against Echinochloa oryzicola assessed as bleaching of stem/leaf parts). Conditions: not given.
Format: functional, organism-based

Structure (SMILES)	Activity
C#CCOc1nn(C)cc1C(=O)N(CC)CCC	Active
CCCN(CC)C(=O)c1cn(C)nc1OCc1cccc(F)c1	Active
CCCN(CC)C(=O)c1cn(C)nc1OCc1cc(C(F)(F)F)cc(C(F)(F)F)c1	Active

The compounds below were run on Ammannia multiflora (assay: Post-emergence herbicidal activity against Ammannia multiflora assessed as bleaching of stem/leaf parts). Conditions: not given.
Format: functional, organism-based

Structure (SMILES)	Activity
C#CCOc1nn(C)cc1C(=O)N(CC)CCC	Active
CCCN(CC)C(=O)c1cn(C)nc1OCc1cccc(F)c1	Active
CCCN(CC)C(=O)c1cn(C)nc1OCc1cc(C(F)(F)F)cc(C(F)(F)F)c1	Active

The compounds below were run on Elatine triandra (assay: Post-emergence herbicidal activity against Elatine triandra assessed as bleaching of stem/leaf parts). Conditions: not given.
Format: functional, organism-based

Structure (SMILES)	Activity
C#CCOc1nn(C)cc1C(=O)N(CC)CCC	Active
CCCN(CC)C(=O)c1cn(C)nc1OCc1cccc(F)c1	Active
CCCN(CC)C(=O)c1cn(C)nc1OCc1cc(C(F)(F)F)cc(C(F)(F)F)c1	Active

These compounds were tested on Rotala indica (assay: Post-emergence herbicidal activity against Rotala indica assessed as bleaching of stem/leaf parts). Conditions: not given.
Format: functional, organism-based

Structure (SMILES)	Activity
C#CCOc1nn(C)cc1C(=O)N(CC)CCC	Active
CCCN(CC)C(=O)c1cn(C)nc1OCc1cccc(F)c1	Active
CCCN(CC)C(=O)c1cn(C)nc1OCc1cc(C(F)(F)F)cc(C(F)(F)F)c1	Active

What follows are compounds tested on Schoenoplectiella juncoides (assay: Post-emergence herbicidal activity against Schoenoplectiella juncoides assessed as bleaching of stem/leaf parts). Conditions: not given.
Format: functional, organism-based

Structure (SMILES)	Activity
C#CCOc1nn(C)cc1C(=O)N(CC)CCC	Active
CCCN(CC)C(=O)c1cn(C)nc1OCc1cccc(F)c1	Active
CCCN(CC)C(=O)c1cn(C)nc1OCc1cc(C(F)(F)F)cc(C(F)(F)F)c1	Active

These compounds were tested on Lindernia procumbens (assay: Post-emergence herbicidal activity against Lindernia procumbens assessed as bleaching of stem/leaf parts). Conditions: not given.
Format: functional, organism-based

Structure (SMILES)	Activity
C#CCOc1nn(C)cc1C(=O)N(CC)CCC	Active
CCCN(CC)C(=O)c1cn(C)nc1OCc1cccc(F)c1	Active
CCCN(CC)C(=O)c1cn(C)nc1OCc1cc(C(F)(F)F)cc(C(F)(F)F)c1	Active

These compounds were tested on Pontederia vaginalis (assay: Post-emergence herbicidal activity against Monochoria vaginalis assessed as bleaching of stem/leaf parts). Conditions: not given.
Format: functional, organism-based

Structure (SMILES)	Activity
C#CCOc1nn(C)cc1C(=O)N(CC)CCC	Active
CCCN(CC)C(=O)c1cn(C)nc1OCc1cccc(F)c1	Active
CCCN(CC)C(=O)c1cn(C)nc1OCc1cc(C(F)(F)F)cc(C(F)(F)F)c1	Active

Each compound was assayed on Cyperus difformis (assay: Post-emergence herbicidal activity against Cyperus difformis assessed as bleaching of stem/leaf parts). Conditions: not given.
Format: functional, organism-based

Structure (SMILES)	Activity
C#CCOc1nn(C)cc1C(=O)N(CC)CCC	Active
CCCN(CC)C(=O)c1cn(C)nc1OCc1cccc(F)c1	Active
CCCN(CC)C(=O)c1cn(C)nc1OCc1cc(C(F)(F)F)cc(C(F)(F)F)c1	Active

These compounds were tested on Echinochloa oryzicola (assay: Post-emergence herbicidal activity against Echinochloa oryzicola assessed as bleaching of stem/leaf parts). Conditions: not given.
Format: functional, organism-based

Structure (SMILES)	Activity
C#CCOc1nn(C)cc1C(=O)N(CC)CCC	Active
CCCN(CC)C(=O)c1cn(C)nc1OCc1cccc(F)c1	Active
CCCN(CC)C(=O)c1cn(C)nc1OCc1cc(C(F)(F)F)cc(C(F)(F)F)c1	Active

What follows are compounds tested on Eleocharis acicularis (assay: Pre-emergence herbicidal activity against Eleocharis acicularis at 2000 g a.i/ha measured after 14 days). Conditions: not given.
Format: functional, organism-based

Structure (SMILES)	Activity
C#CCOc1nn(C)cc1C(=O)N(CC)CCC	inactive
CCCN(CC)C(=O)c1cn(C)nc1OCc1cccc(F)c1	Active
CCCN(CC)C(=O)c1cn(C)nc1OCc1cc(C(F)(F)F)cc(C(F)(F)F)c1	inactive

Each compound was assayed on Schoenoplectiella juncoides (assay: Pre-emergence herbicidal activity against Schoenoplectiella juncoides at 2000 g a.i/ha measured after 14 days). Conditions: not given.
Format: functional, organism-based

Structure (SMILES)	Activity
C#CCOc1nn(C)cc1C(=O)N(CC)CCC	inactive
CCCN(CC)C(=O)c1cn(C)nc1OCc1cccc(F)c1	Active
CCCN(CC)C(=O)c1cn(C)nc1OCc1cc(C(F)(F)F)cc(C(F)(F)F)c1	inactive

Each compound was assayed on Pontederia vaginalis (assay: Pre-emergence herbicidal activity against Monochoria vaginalis at 2000 g a.i/ha measured after 14 days). Conditions: not given.
Format: functional, organism-based

Structure (SMILES)	Activity
C#CCOc1nn(C)cc1C(=O)N(CC)CCC	inactive
CCCN(CC)C(=O)c1cn(C)nc1OCc1cccc(F)c1	Active
CCCN(CC)C(=O)c1cn(C)nc1OCc1cc(C(F)(F)F)cc(C(F)(F)F)c1	inactive

The compounds below were run on Ammannia multiflora (assay: Pre-emergence herbicidal activity against Ammannia multiflora at 2000 g a.i/ha measured after 14 days). Conditions: not given.
Format: functional, organism-based

Structure (SMILES)	Activity
C#CCOc1nn(C)cc1C(=O)N(CC)CCC	inactive
CCCN(CC)C(=O)c1cn(C)nc1OCc1cccc(F)c1	Active
CCCN(CC)C(=O)c1cn(C)nc1OCc1cc(C(F)(F)F)cc(C(F)(F)F)c1	inactive

These compounds were tested on Rotala indica (assay: Pre-emergence herbicidal activity against Rotala indica at 2000 g a.i/ha measured after 14 days). Conditions: not given.
Format: functional, organism-based

Structure (SMILES)	Activity
C#CCOc1nn(C)cc1C(=O)N(CC)CCC	inactive
CCCN(CC)C(=O)c1cn(C)nc1OCc1cccc(F)c1	Active
CCCN(CC)C(=O)c1cn(C)nc1OCc1cc(C(F)(F)F)cc(C(F)(F)F)c1	inactive

The compounds below were run on Elatine triandra (assay: Pre-emergence herbicidal activity against Elatine triandra at 2000 g a.i/ha measured after 14 days). Conditions: not given.
Format: functional, organism-based

Structure (SMILES)	Activity
C#CCOc1nn(C)cc1C(=O)N(CC)CCC	inactive
CCCN(CC)C(=O)c1cn(C)nc1OCc1cccc(F)c1	Active
CCCN(CC)C(=O)c1cn(C)nc1OCc1cc(C(F)(F)F)cc(C(F)(F)F)c1	inactive

Each compound was assayed on Lindernia procumbens (assay: Pre-emergence herbicidal activity against Lindernia procumbens at 2000 g a.i/ha measured after 14 days). Conditions: not given.
Format: functional, organism-based

Structure (SMILES)	Activity
C#CCOc1nn(C)cc1C(=O)N(CC)CCC	inactive
CCCN(CC)C(=O)c1cn(C)nc1OCc1cccc(F)c1	Active
CCCN(CC)C(=O)c1cn(C)nc1OCc1cc(C(F)(F)F)cc(C(F)(F)F)c1	inactive

These compounds were tested on Cyperus difformis (assay: Pre-emergence herbicidal activity against Cyperus difformis at 2000 g a.i/ha measured after 14 days). Conditions: not given.
Format: functional, organism-based

Structure (SMILES)	Activity
C#CCOc1nn(C)cc1C(=O)N(CC)CCC	inactive
CCCN(CC)C(=O)c1cn(C)nc1OCc1cccc(F)c1	Active
CCCN(CC)C(=O)c1cn(C)nc1OCc1cc(C(F)(F)F)cc(C(F)(F)F)c1	inactive
